pEC50: −log10 of the molar value. Like-named read-outs stand apart in the source and are kept apart here.
System: HCV 1b replication (bicistronic genotype 1b replicon in Huh 7 cells)
Test: HCV 1b replicon assay (1b_Huh-Luc/Neo-ET cell line, luciferase readout)
Format: cell-based
Conditions: Hepatitis C virus
Experimental: Biological activity of the compounds of the invention was determined using an HCV replicon assay. The 1b_Huh-Luc/Neo-ET cell line persistently expressing a bicistronic genotype 1b replicon in Huh 7 cells was obtained from ReBLikon GMBH. This cell line was used to test compound inhibition using luciferase enzyme activity readout as a measurement of compound inhibition of replicon levels.
On Day 1 (the day after plating), each compound was added in triplicate to the cells. Plates were incubated for 72 hours prior to running the luciferase assay. Enzyme activity was measured using a Bright-Glo Kit (cat. number E2620) manufactured by Promega Corporation. The following equation was used to generate a percent control value for each compound. % Control=(Average Compound Value/Average Control)*100
The EC50 value was determined using GraphPad Prism and the following equation: Y=Bottom+(Top-Bottom)/(1+10^((Log IC50−X)*HillSlope))
EC50 values of compounds were repeated several times in the replicon assay.

[1] = Huh-7, 1b_Huh-Luc/Neo-ET cell line, 72 hours, luciferase readout, read-out: EC50, concentration effective to produce a half-maximal inhibition of HCV 1b replication
[2] = Huh-7, class symbols, genotype 1b replicon, read-out: Inhibition of HCV genotype 1b replicon
[3] = Huh-7, numeric EC50, genotype 1b replicon, read-out: Inhibition of HCV genotype 1b replicon (EC50)

Structure (SMILES)	pEC50 [1]	pEC50 [2]	pEC50 [3]	pEC50 (Huh-7, read-out: Inhibition of HCV genotype 1b replicon)
CNC(=O)c1c(-c2ccc(F)cc2)oc2cc3c(cc12)[C@H](C)O[C@H](COC(=O)CC1CCNCC1)CN3S(C)(=O)=O [Compound B264]	7.00 to 8.00	7.00 to 8.00	–	–
CNC(=O)c1c(-c2ccc(F)cc2)oc2cc3c(cc12)[C@H](C)O[C@H](COC(=O)[C@H](C)N)CN3S(C)(=O)=O [Compound B249]	≥ 8.00	> 8.00	–	–
CNC(=O)c1c(-c2ccc(F)cc2)oc2cc3c(cc12)[C@H](C)O[C@H](COC(=O)[C@@H](N)[C@@H](C)OC)CN3S(C)(=O)=O [Compound B270]	≥ 8.00	> 8.00	–	–
CNC(=O)c1c(-c2ccc(Oc3ccc(F)cc3)cc2)oc2cc3c(cc12)[C@H](C)O[C@H](COC)CN3S(C)(=O)=O [Compound B243]	≥ 8.00	> 8.00	–	–
CNC(=O)c1c(-c2ccc(Oc3ccc(F)cc3)cc2)nn2cc3c(cc12)C(C)OC(CO)CN3S(C)(=O)=O (stereo not shown) [Compound B250]	–	7.00 to 8.00	–	–
CNC(=O)c1c(-c2ccc(F)cc2)oc2cc3c(cc12)[C@H](C)O[C@H](COC(=O)[C@@H]1CCCN1)CN3S(C)(=O)=O [Compound B266]	≥ 8.00	> 8.00	–	–
CNC(=O)c1c(-c2ccc(F)cc2)oc2cc3c(cc12)[C@H](C)O[C@H](COC(=O)[C@@H](C)N)CN3S(C)(=O)=O [Compound B273]	≥ 8.00	> 8.00	–	–
C=C1CCCN(S(C)(=O)=O)c2cc3oc(-c4ccc(F)cc4)c(C(=O)NC)c3cc21 [Compound B4]	7.00 to 8.00	7.00 to 8.00	–	–
CNC(=O)c1c(-c2ccc(F)cc2)oc2cc3c(cc12)[C@H](C)O[C@H](COC(=O)CCC(=O)O)CN3S(C)(=O)=O [Compound B262]	7.00 to 8.00	7.00 to 8.00	–	–
CNC(=O)c1c(-c2ccc(F)cc2)oc2cc3c(cc12)[C@H](C)O[C@H](COC(=O)CN)CN3S(C)(=O)=O [Compound B253]	≥ 8.00	> 8.00	–	–
CNC(=O)c1c(-c2ccc(F)cc2)oc2cc3c(cc12)[C@H](C)O[C@H](COC(=O)[C@@H](N)Cc1ccccc1)CN3S(C)(=O)=O [Compound B278]	≥ 8.00	> 8.00	–	–
CONC(=O)c1c(-c2ccc(F)cc2)oc2cc3c(cc12)[C@H](C)O[C@H](CO)CN3S(C)(=O)=O [Compound B257]	≥ 8.00	> 8.00	–	–
CNC(=O)c1c(-c2ccc(Oc3ccc(F)cc3)cc2)nn2cc3c(cc12)C(C)OC(CS(C)(=O)=O)CN3S(C)(=O)=O (stereo not shown) [Compound B251]	–	7.00 to 8.00	–	–
CNC(=O)c1c(-c2ccc(F)cc2)oc2cc3c(cc12)[C@H](C)O[C@H](COC(=O)[C@@H](N)[C@@H](C)O)CN3S(C)(=O)=O [Compound B280]	≥ 8.00	> 8.00	–	–
CNC(=O)c1c(-c2ccccc2F)oc2cc3c(cc12)C(C)=CCCN3S(C)(=O)=O [Compound B32]	7.00 to 8.00	7.00 to 8.00	–	–
CNC(=O)c1c(-c2ccc(F)cc2F)oc2cc3c(cc12)C(C)=CCCN3S(C)(=O)=O [Compound B34]	7.00 to 8.00	7.00 to 8.00	–	–
C=C1CCCN(S(C)(=O)=O)c2cc3oc(-c4ccccc4F)c(C(=O)NC)c3cc21 [Compound B31]	7.00 to 8.00	7.00 to 8.00	–	–
CNC(=O)c1c(-c2ccc(Oc3ccc(F)cc3)cc2)oc2cc3c(cc12)[C@H](C)O[C@H](COC(=O)c1cccnc1)CN3S(C)(=O)=O [Compound B246]	≥ 8.00	> 8.00	–	–
CNC(=O)c1c(-c2ccc(F)cc2F)oc2cc3c(cc12)C(CO)CCCN3S(C)(=O)=O (stereo not shown) [Compound B36]	7.00 to 8.00	7.00 to 8.00	–	–
CNC(=O)c1c(-c2ccc(Oc3ccc(F)cc3)cc2)oc2cc3c(cc12)[C@H](C)O[C@H](COC(=O)CN)CN3S(C)(=O)=O [Compound B254]	≥ 8.00	> 8.00	–	–
CNC(=O)c1c(-c2ccc(F)cc2)oc2cc3c(cc12)[C@H](C)O[C@H](COC)CN3S(C)(=O)=O [Compound B260]	≥ 8.00	> 8.00	–	–
CNC(=O)c1c(-c2ccc(F)cc2)oc2cc3c(cc12)C(C)=CCCN3S(C)(=O)=O [Compound B6]	7.00 to 8.00	7.00 to 8.00	–	–
CNC(=O)c1c(-c2ccc(F)cc2)oc2cc3c(cc12)[C@H](C)O[C@H](CO[C@H]1CCOC1)CN3S(C)(=O)=O [Compound B285]	≥ 8.00	> 8.00	–	–
CN/C(=N\O)c1c(-c2ccc(F)cc2)oc2cc3c(cc12)[C@H](C)O[C@H](CS(C)(=O)=O)CN3S(C)(=O)=O [Compound B283]	–	6.00 to 7.00	–	–
CNC(=O)c1c(-c2ccc(F)cc2)oc2cc3c(cc12)[C@H](C)O[C@H](COC(=O)[C@H](N)C(C)C)CN3S(C)(=O)=O [Compound B282]	≥ 8.00	> 8.00	–	–

Structure (SMILES)	pEC50 [1]	pEC50 [2]	pEC50 [3]	pEC50 (Huh-7, read-out: Inhibition of HCV genotype 1b replicon)
CNC(=O)c1c(-c2ccc(F)cc2)oc2cc3c(cc12)CCN3S(C)(=O)=O [Compound B21]	–	6.00 to 7.00	–	–
CNC(=O)c1c(-c2ccc(F)cc2)oc2cc3c(cc12)[C@H](C)O[C@@H](CS(C)(=O)=O)CN3S(C)(=O)=O [Compound B287]	7.00 to 8.00	7.00 to 8.00	–	–
CNC(=O)c1c(-c2ccc(F)cc2)oc2cc3c(cc12)C1(CCCN3S(C)(=O)=O)CC1 [Compound B9]	7.00 to 8.00	7.00 to 8.00	–	–
CC[C@H](C)[C@H](N)C(=O)OC[C@@H]1CN(S(C)(=O)=O)c2cc3oc(-c4ccc(F)cc4)c(C(=O)NC)c3cc2[C@H](C)O1 [Compound B269]	≥ 8.00	> 8.00	–	–
CNC(=O)c1c(-c2ccc(F)cc2)oc2cc3c(cc12)[C@H](C)O[C@H](COC(=O)[C@@H](N)c1ccccc1)CN3S(C)(=O)=O [Compound B272]	≥ 8.00	> 8.00	–	–
CNC(=O)c1c(-c2ccc(F)cc2)oc2cc3c(cc12)[C@H](C)O[C@H](COC[C@H]1COC(C)(C)O1)CN3S(C)(=O)=O [Compound B275]	≥ 8.00	> 8.00	–	–
CNC(=O)c1c(-c2ccc(F)cc2)oc2cc3c(cc12)[C@H](C)O[C@H](COC(=O)N1CCC(N2CCCCC2)CC1)CN3S(C)(=O)=O [Compound B276]	≥ 8.00	> 8.00	–	–
CNC(=O)c1c(-c2ccc(F)cc2)oc2cc3c(cc12)[C@H](C)O[C@H](COC[C@H](O)CO)CN3S(C)(=O)=O [Compound B279]	7.00 to 8.00	7.00 to 8.00	–	–
CNC(=O)c1c(-c2ccc(F)cc2)oc2cc3c(cc12)[C@H](C)O[C@H](COP(=O)(O)O)CN3S(C)(=O)=O [Compound B255]	≥ 8.00	> 8.00	–	–
CNC(=O)c1c(-c2ccc(F)cc2)nn2cc3c(cc12)C(C)OC(CS(C)(=O)=O)CN3S(C)(=O)=O (stereo not shown) [Compound B247]	≥ 8.00	7.00 to 8.00	–	–
CNC(=O)c1c(-c2ccc(F)cc2)oc2cc3c(cc12)[C@@H](C)CCCN3S(C)(=O)=O [Compound B16]	7.00 to 8.00	–	7.34	–
CNC(=O)c1c(-c2ccc(F)cc2)oc2cc3c(cc12)[C@H](C)O[C@H](COCCOCCOC)CN3S(C)(=O)=O [Compound B268]	≥ 8.00	> 8.00	–	–
CNC(=O)c1c(-c2ccc(F)cc2)oc2cc3c(cc12)[C@H](C)O[C@H](COC(=O)COCCOCCOC)CN3S(C)(=O)=O [Compound B256]	≥ 8.00	> 8.00	–	–
CNC(=O)c1c(-c2ccc(F)cc2)oc2cc3c(cc12)[C@H](C)O[C@H](COC(=O)[C@@H](N)C(C)C)CN3S(C)(=O)=O [Compound B248]	≥ 8.00	> 8.00	–	–
CNC(=O)c1c(-c2ccc(F)cc2)oc2cc3c(cc12)[C@H](C)O[C@H](COCCOC)CN3S(C)(=O)=O [Compound B267]	≥ 8.00	> 8.00	–	–
CNC(=O)c1c(-c2ccc(F)cc2)oc2cc3c(cc12)[C@H](C)O[C@@H](CO)CN3S(C)(=O)=O [Compound B274]	–	7.00 to 8.00	–	–
CNC(=O)c1c(-c2ccc(F)cc2)oc2cc3c(cc12)C(O)CCCN3S(C)(=O)=O (stereo not shown) [Compound B8]	–	–	6.97	–
CNC(=O)c1c(-c2ccc(Oc3ccc(F)cc3)cc2)oc2cc3c(cc12)[C@H](C)O[C@H](COC(=O)CCC(=O)O)CN3S(C)(=O)=O [Compound B245]	≥ 8.00	> 8.00	–	–
CNC(=O)c1c(-c2ccc(F)cc2)oc2cc3c(cc12)[C@H](C)O[C@H](COC(=O)COCCOCCOCCOC)CN3S(C)(=O)=O [Compound B258]	≥ 8.00	> 8.00	–	–
CNC(=O)c1c(-c2ccc(F)cc2)oc2cc3c(cc12)[C@H](C)O[C@H](COC(=O)C1CCNCC1)CN3S(C)(=O)=O [Compound 8265]	≥ 8.00	–	–	> 8.00
CNC(=O)c1c(-c2ccc(F)cc2)oc2cc3c(cc12)[C@H](C)O[C@H](COC(=O)c1cccnc1)CN3S(C)(=O)=O [Compound B263]	≥ 8.00	> 8.00	–	–
CNC(=O)c1c(-c2ccc(Oc3ccc(F)cc3)cc2)oc2cc3c(cc12)[C@H](C)O[C@H](COC(=O)C(C)(C)C)CN3S(C)(=O)=O [Compound B244]	≥ 8.00	> 8.00	–	–
CNC(=O)c1c(-c2ccc(F)cc2)oc2cc3c(cc12)C(=O)CCCN3S(C)(=O)=O [Compound B7]	7.00 to 8.00	7.00 to 8.00	–	–
CNC(=O)c1c(-c2ccccc2F)oc2cc3c(cc12)C(C)CCCN3S(C)(=O)=O (stereo not shown) [Compound B33]	≥ 8.00	> 8.00	–	–
CNC(=O)c1c(-c2ccc(F)cc2)oc2cc3c(cc12)[C@H](C)O[C@H](CO[C@@H]1CCOC1)CN3S(C)(=O)=O [Compound B286]	≥ 8.00	> 8.00	–	–

Source: patent US9085587B2, “Inhibitors of hepatitis C virus” (priority 2010, dated 2015)
